Measured values taken from patent EP0233461B2, “4,5,6-Substituted-2-pyrimidinamines” (AMERICAN CYANAMID COMPANY, priority 1986, dated 1987).
Counter-ions that a name gives are not always drawn.

The compounds below were run on human basophils (assay: Inhibition of histamine release from immunologically stimulated human basophils). Conditions: Homo sapiens, concentration causing 50% inhibition of histamine release, by linear regression; active if IC50 ≦ 48 µM.
Assay type: cell-based
Method: The blood is allowed to sediment at room temperature in two 50 ml polycarbonate centrifuge tubes until a sharp interface develops between the red cells and plasma (60-90 minutes). The plasma (top) layer from each tube is withdrawn by pipet and transferred to respective 50 ml polycarbonate tubes. The plasma is centrifuged for 8 minutes at 110X G at 4°C. The supernatant is carefully poured off as completely as possible and the cell button is resuspended in 2-3 ml of Tris-A buffer using a siliconized Pasteur pipet. The resuspension is accomplished by drawing the liquid gently in an out of the pipet, with the tip below the liquid until an even suspension of cells is obtained. Sufficient Tris-A buffer is then added to bring the volume in the tube to about 45 ml and the tube is centrifuged at 110X G for 8 minutes at 4°C. The supernatant is poured off and the cell button is resuspended and centrifuged as described above. The supernatant is poured off and the cell button is suspended in 2-3 ml of Tris-ACM buffer to make the final volume sufficient to allow addition to the reaction tubes. Reaction tubes containing anti-IgE or antigens, either alone or with test compound in a total volume of 0.2 ml are prepared and placed in a 37°C bath. The cells are warmed to 37°C and frequently swirled to ensure an even suspension, while 1.0 ml aliquots are added to each reaction tube. The tubes are then incubated for 60 minutes at 37°C, vortexing the tubes gently every 15 minutes to keep the cells evenly suspended. When the reaction is complete, the tubes are centrifuged at 4°C for 10 minutes at 1500 rpm to sediment the cells. […] Blanks and totals are included in each test. The blanks have cells and all reagents except antigen or anti-IgE. The totals contain 0.24 ml of 8% perchloric acid, one ml of cells and 0.2 ml of buffer. All samples are then centrifuged to remove the precipitate protein. […] The automated system consists of the following Technicon Autoanalyzer II components Sampler IV, Dual-Speed Proportioning Pump III, Fluoronephelometer with a narrow pass primary filter 7-60 and a secondary filter 3-74, Recorder, and Digital Printer. The manifold used is the one described by Siraganian vide supra, with the following modifications: the dialyzer is omitted; all pumping tubes pass through a single proportioning pump with large capacity and twice the volume of sample is taken for anaylsis. The automated chemistry consists of the following steps: Extraction from alkaline saline into butanol, back extraction into dilute hydrochloric acid by addition of heptane, reaction of histamine with o-phthaldialdehyde (OPT) at high pH and conversion of the OPT adduct to a stable fluorophore with phosphoric acid. The reaction product is then passed through the fluorometer. The full scale response is adjusted to 50 ng histamine base with a threshold sensitivity of approximately 0.5 ng. The instrument blank (wash) is substracted from the ng histamine of each sample. Then the ng histamine of each sample is divided by the mean of the three totals (cells lysed with perchloric acid) to obtain percent release. Control samples contain antigen but no test compound. Blank (or spontaneous release) samples contain neither antigen nor test compound. The mean of the blanks (three replicates) is subtracted from the percent release for controls and test compounds.

SMILES | IC50 [µM]
c1ccc(Nc2nccc(-c3cccnc3)n2)cc1 [N-Phenyl-4-(3-pyridinyl)-2-pyrimidinamine, sulfate] | 3

Same assay, conditions: Homo sapiens, concentration causing 50% inhibition of histamine release, by linear regression; active if IC50 ≦ 48 µM; read-out: IC50

SMILES | IC50 [µM]
COc1cccc(Nc2nccc(-c3ccc(C)o3)n2)c1 [N-(3-Methoxyphenyl)-4-(5-methyl-2-furanyl)-2-pyrimidinamine] | 1.2
CNC(=O)c1ccc(Nc2nccc(-c3cccnc3)n2)cc1 [N-Methyl-4-[[4-(3-pyridinyl)-2-pyrimidinyl]amino]benzamide] | 4.6
CN(C)CCCOc1ccc(Nc2nccc(-c3cccnc3)n2)cc1 [N-[4-[3-(Dimethylamino)propoxy]phenyl]-4-(3-pyridinyl)-2-pyrimidinamine] | 0.5
Cc1cccc(Nc2nccc(-c3cnccn3)n2)c1 [N-(3-Methylphenyl)-4-pyrazinyl-2-pyrimidinamine] | 5.4
Cc1cccc(Nc2nccc(-c3ccccn3)n2)c1 [N-(3-Methylphenyl)-4-(2-pyridinyl)-2-pyrimidinamine] | 0.7
Cc1cccc(Nc2nccc(-c3ccco3)n2)c1 [4-(2-Furanyl)-N-(3-methylphenyl)-2-pyrimidinamine] | 3.5
CCN(CC)CCNC(=O)c1ccc(Nc2nccc(-c3cccnc3)n2)cc1 [N-[2-(Diethylamino)ethyl]-4-[[4-(3-pyridinyl)-2-pyrimidinyl]amino]benzamide] | 0.8
Cc1cccc(Nc2nccc(-c3ccnc4ccccc34)n2)c1 [N-(3-Methylphenyl)-4-(4-quinolinyl)-2-pyrimidinamine] | 10.9
CC(=O)Nc1ccc(Nc2nccc(-c3ccccn3)n2)cc1 [N-[4-[[4-(2-Pyridinyl)-2-pyrimidinyl]amino]-phenyl]acetamide] | 1.5
CC(C)c1ccc(Nc2nccc(-c3cccnc3)n2)cc1 [N-[4-(1-Methylethyl)phenyl]-4-(3-pyridinyl)-2-pyrimidinamine] | 1.1
CC(=NNC(N)=O)c1ccc(Nc2nccc(-c3cccnc3)n2)cc1 [2-[1-[4-[[4-(3-Pyridinyl)-2-pyrimidinyl]amino]phenyl]ethylidene]hydrazinecarboxamide] | 8.1
CN1CCN(c2ccc(Nc3nccc(-c4cccnc4)n3)cc2)CC1 [N-[4-(4-Methyl-1-piperazinyl)phenyl]-4-(3-pyridinyl)-2-pyrimidinamine] | 1.5
CCc1ccc(Nc2nccc(-c3cc[n+]([O-])cc3)n2)cc1 [N-(4-Ethylphenyl)-4-(4-pyridinyl)-2-pyrimidinamine, pyridine-1-oxide] | 17.7
CNc1ccc(Nc2nccc(-c3ccccn3)n2)cc1 [N-Methyl-N'-[4-(2-pyridinyl)-2-pyrimidinyl]-1,4-benzenediamine] | 1.4
Cc1ccc(Nc2nccc(-c3ccccn3)n2)cc1C [N-(3,4-Dimethylphenyl)-4-(2-pyridinyl)-2-pyrimidinamine] | 5.9
CC(C)N(CCOc1ccc(Nc2nccc(-c3cccnc3)n2)cc1)C(C)C [N-[4-[2-[bis(1-Methylethyl)amino]ethoxy]phenyl]-4-(3-pyridinyl)-2-pyrimidinamine] | 4.6
CCN(CC)c1ccc(Nc2nccc(-c3ccncc3)n2)cc1 [N,N-Diethyl-N'-[4-(4-pyridinyl)-2-pyrimidinyl]-1,4-benzenediamine] | 1.1
Cc1ccccc1Nc1nccc(-c2ccncc2)n1 [N-(2-Methylphenyl)-4-(4-pyridinyl)-2-pyrimidinamine] | 3.9

SMILES | IC50 [µM]
COc1ccc(C)cc1Nc1nccc(-c2ccncc2)n1 [N-(2-Methoxy-5-methylphenyl)-4-(4-pyridinyl)-2-pyrimidinamine] | 6.9
CN(C)c1ccc(Nc2nccc(-c3ccccn3)n2)cc1 [N,N-Dimethyl-N'-[4-(2-pyridinyl)-2-pyrimidinyl]-1,4-benzenediamine, dihydrochloride] | 4.4
CCOC(=O)c1ccc(Nc2nccc(-c3cccnc3)n2)cc1 [4-[[4-(3-Pyridinyl)-2-pyrimidinyl]amino]-benzoic acid, ethyl ester] | 12.4
COc1ccc(Nc2nccc(-c3ccsc3)n2)cc1 [N-(4-Methoxyphenyl)-4-(3-thienyl)-2-pyrimidinamine] | 15.6
COc1ccc(Nc2nccc(-c3cc[n+](C)cc3)n2)cc1 [4-[2-[(4-Methoxyphenyl)amino]-4-pyrimidinyl]-1-methylpyridinium, iodide] | 33.3
Cc1cccc(Nc2nccc(-c3ccc(C)s3)n2)c1 [N-(3-Methylphenyl)-4-(5-methyl-2-thienyl)-2-pyrimidinamine] | 1.4
Cc1cc(C)c(Nc2nccc(-c3ccncc3)n2)c(C)c1 [4-(4-Pyridinyl)-N-(2,4,6-trimethylphenyl)-2-pyrimidinamine] | 10.5
CC(C)(C)c1ccc(Nc2nccc(-c3cccs3)n2)cc1 [N-[4-(1,1-Dimethylethyl)phenyl]-4-(2-thienyl)-2-pyrimidinamine] | 4.6
Nc1ccc(Nc2nccc(-c3ccccn3)n2)cc1 [N-[4-(2-Pyridinyl)-2-pyrimidinyl]-1,4-benzenediamine, dihydrochloride] | 1
CC(=O)c1ccc(Nc2nccc(-c3cccnc3)n2)cc1 [N-(4-Acetylphenyl)-4-(3-pyridinyl)-2-pyrimidinamine] | 0.8
CC(=O)Nc1cccc(Nc2nccc(-c3ccncc3)n2)c1 [N-[3-[[4-(4-Pyridinyl)-2-pyrimidinyl]amino]-phenyl]acetamide] | 2.1
CCc1cccc(Nc2nccc(-c3cccs3)n2)c1 [N-(3-Ethylphenyl)-4-(2-thienyl)-2-pyrimidinamine] | 48
CC(=O)Nc1ccc(Nc2nccc(-c3cccnc3)n2)cc1C | 1.8
CC(=O)Nc1cccc(Nc2nccc(-c3cccnc3)n2)c1 [N-[3-[[4-(3-Pyridinyl)-2-pyrimidinyl]amino]-phenyl]acetamide] | 5
NS(=O)(=O)c1ccc(Nc2nccc(-c3ccccn3)n2)cc1 [4-[[4-(2-Pyridinyl)-2-pyrimidinyl]amino]-benzenesulfonamide] | 4.5
Fc1cccc(F)c1Nc1nccc(-c2ccncc2)n1 [N-(2,6-Difluorophenyl)-4-(4-pyridinyl)-2-pyrimidinamine] | 2.9
CCc1ccc(Nc2nccc(-c3ccc(C)nc3)n2)cc1 [N-(4-Ethylphenyl)-4-(6-methyl-3-pyridinyl)-2-pyrimidinamine] | 13.4

Same assay, conditions: concentration causing 50% inhibition of histamine release, by linear regression; active if IC50 ≦ 48 µM; dihydrochloride; read-out: IC50

SMILES | IC50 [µM]
CN(C)c1cccc(Nc2nccc(-c3ccncc3)n2)c1 [N,N-Dimethyl-N'-[4-(4-pyridinyl)-2-pyrimidin-yl]-1,3-benzenediamine, dihydrochloride] | 0.5

Same assay, conditions: concentration causing 50% inhibition of histamine release, by linear regression; active if IC50 ≦ 48 µM; phosphate; read-out: IC50

SMILES | IC50 [µM]
Cc1cc(C)cc(Nc2nccc(-c3ccccn3)n2)c1 [N-(3,5-Dimethylphenyl)-4-(2-pyridinyl)-2-pyrimidinamine, phosphate] | 0.3
Cc1cc(C)cc(Nc2nccc(-c3cccnc3)n2)c1 [N-(3,5-Dimethylphenyl)-4-(3-pyridinyl)-2-pyrimidinamine, phosphate] | 3

Same assay, conditions: concentration causing 50% inhibition of histamine release, by linear regression; active if IC50 ≦ 48 µM; read-out: IC50

SMILES | IC50 [µM]
CN(C)c1ccc(Nc2nccc(-c3ccncc3)n2)cc1 [N-[4-(Dimethylamino)phenyl]-4-(4-pyridinyl)-2-pyrimidinamine] | 3.8
COc1ccc(Nc2nccc(-c3cccnc3)n2)cc1 [N-(4-Methoxyphenyl)-4-(3-pyridinyl)-2-pyrimidinamine] | 1.4
CN(C)c1cccc(Nc2nccc(-c3ccncc3)n2)c1 [N,N-Dimethyl-N'-[4-(4-pyridinyl)-2-pyrimidinyl]-1,3-benzened] [N,N-Dimethyl-N'-[4-(4-pyridinyl)-2-pyrimidinyl]-1,3-benzenediamine] | 3.5
